ChEMBL document CHEMBL1201862, “PubChem BioAssay data set” (2004)
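48-hour exposure; five concentrations; linearly interpolated endpoints. GI50 marks 50% less growth.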 The source made the active and inactive calls. Cut-off read from the data, not from the text of the source: active = GI50 up to about 1.1 µM and inactive = higher.

Legend:
Assay in all cases: growth of human tumour cells (NCI), 48 h
BT-549 = test system: BT-549
SF-539 = test system: SF-539
RXF 393 = test system: RXF 393
OVCAR-4 = test system: OVCAR-4
RPMI-8226 = test system: RPMI-8226
CAKI-1 = test system: CAKI-1
HOP-92 = test system: HOP-92
SW-620 = test system: SW-620
A498 = test system: A498
SN12C = test system: SN12C
LOX IMVI = test system: LOX IMVI
OVCAR-5 = test system: OVCAR-5
OVCAR-8 = test system: OVCAR-8
K562 = test system: K562
SNB-75 = test system: SNB-75
TK-10 = test system: TK-10
IGROV-1 = test system: IGROV-1
HT-29 = test system: HT-29
SK-MEL-2 = test system: SK-MEL-2
MDA-N = test system: MDA-N

SMILES	GI50 (BT-549)	GI50 (SF-539)	GI50 (RXF 393)	GI50 (OVCAR-4)	GI50 (RPMI-8226)	GI50 (CAKI-1)	GI50 (HOP-92)	GI50 (SW-620)	GI50 (A498)	GI50 (SN12C)	GI50 (LOX IMVI)	GI50 (OVCAR-5)	GI50 (OVCAR-8)	GI50 (K562)	GI50 (SNB-75)	GI50 (TK-10)	GI50 (IGROV-1)	GI50 (HT-29)	GI50 (SK-MEL-2)	GI50 (MDA-N)
CC(Cc1ccc(O)cc1)NCC(O)c1ccc(O)c(O)c1 (stereo unspecified)	> 100 µM (inactive)	> 100 µM (inactive)	> 100 µM (inactive)	> 100 µM (inactive)	> 100 µM (inactive)	> 100 µM (inactive)	> 100 µM (inactive)	> 100 µM (inactive)	> 100 µM (inactive)	> 100 µM (inactive)	> 100 µM (inactive)	> 100 µM (inactive)	> 100 µM (inactive)	> 100 µM (inactive)	> 100 µM (inactive)	> 100 µM (inactive)	> 100 µM (inactive)	> 100 µM (inactive)	> 100 µM (inactive)	–
O=C1CCCc2cc3c(cc21)CC1(C3)Cc2ccc3c(c2C1)C(=O)CCC3 (stereo unspecified)	–	28.3 µM (inactive)	37.1 µM (inactive)	13.9 µM (inactive)	7.59 µM (inactive)	10.5 µM (inactive)	21.3 µM (inactive)	15.6 µM (inactive)	41.2 µM (inactive)	23.6 µM (inactive)	11.7 µM (inactive)	> 100 µM (inactive)	16.4 µM (inactive)	3.31 µM (inactive)	15.5 µM (inactive)	23.9 µM (inactive)	20.5 µM (inactive)	16.3 µM (inactive)	24.2 µM (inactive)	5.18 µM (inactive)
CCC(C(=O)C(=O)OC)P1(=O)OC(C)(C)CN1C(C)(C)C (stereo unspecified)	> 100 µM (inactive)	> 100 µM (inactive)	–	> 100 µM (inactive)	> 100 µM (inactive)	> 100 µM (inactive)	–	> 100 µM (inactive)	20.5 µM (inactive)	–	> 100 µM (inactive)	> 100 µM (inactive)	> 100 µM (inactive)	> 100 µM (inactive)	> 100 µM (inactive)	> 100 µM (inactive)	> 100 µM (inactive)	> 100 µM (inactive)	> 100 µM (inactive)	–
O=[N+]([O-])c1cccnc1NCC1(CO)CCCC1	–	21.6 µM (inactive)	> 10 µM (inactive)	36.5 µM (inactive)	20.2 µM (inactive)	–	23.4 µM (inactive)	25.7 µM (inactive)	39.6 µM (inactive)	22.3 µM (inactive)	16.7 µM (inactive)	31.6 µM (inactive)	19.4 µM (inactive)	18.5 µM (inactive)	15.9 µM (inactive)	27.2 µM (inactive)	18.3 µM (inactive)	19.3 µM (inactive)	–	21.4 µM (inactive)
COC(=O)CCCc1ccc2c(c1)CC1(C2)Cc2cc3c(cc2C1)CCCC3	–	37.8 µM (inactive)	24.7 µM (inactive)	42.5 µM (inactive)	16 µM (inactive)	–	26.1 µM (inactive)	–	41.9 µM (inactive)	40.6 µM (inactive)	30.3 µM (inactive)	> 100 µM (inactive)	44.5 µM (inactive)	22.9 µM (inactive)	–	> 100 µM (inactive)	44.9 µM (inactive)	29.6 µM (inactive)	22.6 µM (inactive)	16.8 µM (inactive)
COc1cc(CNc2nc3cc(C(F)(F)F)ccc3nc2C)cc(OC)c1OC	–	21.6 µM (inactive)	16.6 µM (inactive)	–	11.7 µM (inactive)	24.7 µM (inactive)	–	17.1 µM (inactive)	–	14.7 µM (inactive)	13.9 µM (inactive)	–	23.7 µM (inactive)	23 µM (inactive)	19.4 µM (inactive)	15.7 µM (inactive)	14.7 µM (inactive)	17.2 µM (inactive)	–	15.8 µM (inactive)
Cc1cc2c3c(nc4ccccc42)C(=O)c2ccccc2-c3n1	16.9 µM (inactive)	19.3 µM (inactive)	20.3 µM (inactive)	25.4 µM (inactive)	3.14 µM (inactive)	12.3 µM (inactive)	19.3 µM (inactive)	9.48 µM (inactive)	16.9 µM (inactive)	17 µM (inactive)	–	32 µM (inactive)	5.52 µM (inactive)	0.839 µM (active)	4.37 µM (inactive)	34.8 µM (inactive)	2.98 µM (inactive)	21.7 µM (inactive)	17.9 µM (inactive)	–
CC(C)(C)Nc1noc(=O)n1C(C)(C)C	–	> 100 µM (inactive)	> 100 µM (inactive)	> 100 µM (inactive)	> 100 µM (inactive)	> 100 µM (inactive)	> 100 µM (inactive)	> 100 µM (inactive)	> 100 µM (inactive)	> 100 µM (inactive)	> 100 µM (inactive)	> 100 µM (inactive)	> 100 µM (inactive)	> 100 µM (inactive)	> 100 µM (inactive)	> 100 µM (inactive)	> 100 µM (inactive)	> 100 µM (inactive)	> 100 µM (inactive)	> 100 µM (inactive)
N=C1OC(c2ccc3c(c2)OCO3)C(NNS(=O)(=O)c2ccccc2)=C1O (stereo unspecified)	–	> 100 µM (inactive)	> 100 µM (inactive)	> 100 µM (inactive)	87.1 µM (inactive)	> 100 µM (inactive)	> 100 µM (inactive)	> 100 µM (inactive)	> 100 µM (inactive)	> 100 µM (inactive)	> 100 µM (inactive)	> 100 µM (inactive)	> 100 µM (inactive)	> 100 µM (inactive)	> 100 µM (inactive)	> 100 µM (inactive)	> 100 µM (inactive)	> 100 µM (inactive)	68.2 µM (inactive)	–
CC(=O)OCC1OC(n2c(C)c(C(C)=O)c(-c3cccc4ccccc34)c(C#N)c2=S)C(OC(C)=O)C(OC(C)=O)C1OC(C)=O (stereo unspecified)	–	> 100 µM (inactive)	> 100 µM (inactive)	> 100 µM (inactive)	–	> 100 µM (inactive)	17.5 µM (inactive)	> 100 µM (inactive)	> 100 µM (inactive)	> 100 µM (inactive)	> 100 µM (inactive)	> 100 µM (inactive)	> 100 µM (inactive)	> 100 µM (inactive)	25.9 µM (inactive)	> 100 µM (inactive)	> 100 µM (inactive)	> 100 µM (inactive)	> 100 µM (inactive)	> 100 µM (inactive)
C=C(C)[C@H]1C=C[C@@H](OC(C)=O)[C@@]2(COC(C)=O)[C@H](OC(=O)CCC)[C@H]3[C@@H](OC(C)=O)[C@@H](C)C[C@]3(O)C(=O)[C@@](C)(OC(C)=O)[C@H]12	58.2 µM (inactive)	–	> 100 µM (inactive)	35.6 µM (inactive)	30.3 µM (inactive)	> 100 µM (inactive)	3.53 µM (inactive)	55 µM (inactive)	67 µM (inactive)	36 µM (inactive)	29.5 µM (inactive)	60.4 µM (inactive)	29.7 µM (inactive)	31.6 µM (inactive)	46 µM (inactive)	32.2 µM (inactive)	32.1 µM (inactive)	38.7 µM (inactive)	87.3 µM (inactive)	–
O=C1[C@H](O)[C@@H]2C(O)O[C@H]3[C@@H]2N1C[C@H]3[Si](c1ccccc1)(c1ccccc1)c1ccccc1 (stereo partly specified)	> 100 µM (inactive)	> 100 µM (inactive)	20.2 µM (inactive)	> 100 µM (inactive)	> 100 µM (inactive)	> 100 µM (inactive)	–	> 100 µM (inactive)	> 100 µM (inactive)	–	> 100 µM (inactive)	> 100 µM (inactive)	> 100 µM (inactive)	> 100 µM (inactive)	5.94 µM (inactive)	> 100 µM (inactive)	> 100 µM (inactive)	> 100 µM (inactive)	> 100 µM (inactive)	–
C[C@@]12[C@H]3CC[C@@H]1[C@H](O)C(=O)N2CC3	–	> 100 µM (inactive)	> 100 µM (inactive)	> 100 µM (inactive)	> 100 µM (inactive)	> 100 µM (inactive)	> 100 µM (inactive)	> 100 µM (inactive)	> 100 µM (inactive)	–	> 100 µM (inactive)	> 100 µM (inactive)	> 100 µM (inactive)	> 100 µM (inactive)	> 100 µM (inactive)	> 100 µM (inactive)	> 100 µM (inactive)	> 100 µM (inactive)	> 100 µM (inactive)	> 100 µM (inactive)
CCN1C[C@]2(C)CC[C@H](OC)C34C1C([C@H](OC(C)=O)[C@@H]32)[C@@]1(OC)C[C@H](OC)[C@H]2C[C@@H]4[C@@H]1[C@H]2O	–	> 100 µM (inactive)	> 100 µM (inactive)	> 100 µM (inactive)	> 100 µM (inactive)	> 100 µM (inactive)	> 100 µM (inactive)	54.2 µM (inactive)	> 100 µM (inactive)	> 100 µM (inactive)	> 100 µM (inactive)	> 100 µM (inactive)	> 100 µM (inactive)	92.5 µM (inactive)	> 100 µM (inactive)	> 100 µM (inactive)	> 100 µM (inactive)	> 100 µM (inactive)	> 100 µM (inactive)	–
O=c1ssc2ncccc12	–	30.3 µM (inactive)	18.1 µM (inactive)	–	12.9 µM (inactive)	56.6 µM (inactive)	> 100 µM (inactive)	19.7 µM (inactive)	59.3 µM (inactive)	15.1 µM (inactive)	16.3 µM (inactive)	26 µM (inactive)	–	9.66 µM (inactive)	14.4 µM (inactive)	35.5 µM (inactive)	–	23.6 µM (inactive)	10.4 µM (inactive)	19 µM (inactive)
